Measured values from publication PMC9164017 (ACS nano, 2021).

Columns and labels:
MeV F (S262R) = MeV F (S262R) (Measles virus, UniProt Q786F3, S262R); assay type: cell-based; details: 1 μM, 60 min 37 °C, then 10 mM zanamivir; triplicate experiments
MeV F = MeV F (Measles virus, UniProt Q786F3); assay type: cell-based; details: with or without 3g, coincubation or sequential incubation; Figure S17

## N#Cc1cccc(NC(=O)Cc2ccccc2)c1 [3g, N-(3-Cyanophenyl)-2-phenylacetamide]
MeV F (S262R)
  step of entry at which the compound acts (RBCs released, retained or fused): reversibly bound RBC
MeV F
  colocalization of [FIP–HRC]2–PEG11 with F: colocalization is disrupted
